Measured values published in patent US7205382B2, “Peptides, the production and use thereof for binding immunoglobulins” (Fresenius Medical Care Affina GmbH, priority 2000, dated 2007).
Bridge positions count the residues as written; N and C are the ends. Square brackets hold non-standard residues; d marks the D form. Ends that are not written are not given here. cellulose = not defined here; βAla = NCCC(=O)O

Assays:
[1] = test system: immunoglobulins from human plasma; assay: Affinity chromatography of human plasma on peptide-sepharose matrices, binding capacity for immunoglobulins; details: 6 volume fractions per column volume, 80 cm/h, elution pH 2.8
Description: For immobilization to a solid phase, the peptides were dissolved in coupling buffer (30% (v/v) acetonitrile, 0.5 M NaCl, 0.1 M NaHCO3, pH 8.3) to a concentration of 1 mg/ml and mixed with washed and CNBr-preactivated sepharose 4B at a volume ratio of 10:1. After completion of the coupling reaction, the peptide. matrices were washed with coupling buffer, and the excess CNBr groups were inactivated by incubation of the matrix in Tris buffer (100 mM Tris-HCl, 500 mM NaCl, pH 8.0).
The peptide loadings of the matrices were determined by photometry (A280 nm) by establishing the difference between the peptide mass employed before coupling and the non-immobilized peptide mass after coupling.
The peptide matrices were tested by means of affinity chromatography for their binding capacity and binding specificity for immunoglobulins with human plasma as a sample. Thus, 6 volume fractions of human plasma as the sample was passed through 1 column volume fraction of peptide matrix at a linear flow rate of 80 cm/h.
Prior to sample application, the affinity-chromatographic column was equilibrated with PBS, pH 7.2. […]
The determination of the concentration of the eluted protein was effected by photometric measurement of the adsorption at 280 nm. The immunoglobulin concentration was calculated therefrom with ε280 nm=1.35 cm^2/mg for IgG.

[2] = test system: human IgG-Fc; assay: Cellulose-immobilized 13-mer peptide variants incubated with human IgG-Fc, anti-human IgG-AP detection; type: binding; set-up: key: No binding of immunoglobulin for the defined peptide variant, detection negative: 0; Binding of immunoglobulin for the defined peptide variant, detection positive: +; details: IgG-Fc 1 μg/ml in blocking buffer, 3 h room temperature
In short: (§1)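 SPOT-type 13-mer peptides on cellulose with a (βA)(βA) spacer, blocked in 5% saccharose/4% BSA in T-TBS pH 8.0. Incubated 3 h at RT with human IgG-Fc (1 μg/ml) or human serum/plasma (1:10,000), or with blocking buffer alone as the albumin specificity control. Bound IgG detected with AP-anti-human IgG (1.2 μg/ml) and NBT/BCIP colorimetric development at pH 9.5.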

[3] = test system: serum albumin; assay: Cellulose-immobilized 13-mer peptide variants incubated with serum albumin (negative control), anti-human IgG-AP detection; type: binding; set-up: key: No binding of immunoglobulin for the defined peptide variant, detection negative: 0; Binding of immunoglobulin for the defined peptide variant, detection positive: +; details: blocking buffer without addition, 3 h room temperature
In short: as §1

[4] = test system: immunoglobulins in human plasma; assay: Cellulose-immobilized 13-mer peptide variants incubated with human plasma, anti-human IgG-AP detection; type: binding; set-up: key: No binding of immunoglobulin for the defined peptide variant, detection negative: 0; Binding of immunoglobulin for the defined peptide variant, detection positive: +; details: human plasma as sample, diluted 1:10,000 in blocking buffer, 3 h room temperature
In short: as §1

Substance	Rel. capacity: mg of bound protein/mg of peptide matrix loading [1] [mg/mg]	Volume capacity: mg of bound protein/ml of peptide matrix [1] [mg/mL]	Result for incubation with human IgG-Fc (immunoglobulin binding detection) [2]	Result for incubation with serum albumin (immunoglobulin binding detection) [3]	Result for incubation with human plasma (immunoglobulin binding detection) [4]
acetyl-D-S-A-W-H-L-G-E-L-V-W-C-T-((βA)(βA)K) (Ac-DSAWHLGELVWCT[βAla][βAla]K; also: immobilized on sepharose 4B) [Peptide matrix A1]	0.53	4.70			
05Y: cellulose-bound 13-mer variant DCAWYLGELVWCT-(βA)(βA) (DCAWYLGELVWCT[βAla][βAla]; disulfide 2-12 (inferred); not fully specified (N-terminus); printed as DCAWYLGELVWCT-(βA)(βA); also: cellulose-bound)			0	0	0
09E: cellulose-bound 13-mer variant DCAWHLGEEVWCT-(βA)(βA) (DCAWHLGEEVWCT-{βAla-βAla-cellulose}; disulfide 2-12 (inferred); reading uncertain; also: printed as DCAWHLGEEVWCT-(βA)(βA))			0	0	0
08L: cellulose-bound 13-mer variant DCAWHLGLLVWCT-(βA)(βA) (DCAWHLGLLVWCT-{βAla-βAla-cellulose}; disulfide 2-12 (inferred); not fully specified (N-terminus); printed as DCAWHLGLLVWCT-(βA)(βA); reading uncertain)			0	0	0
02E: cellulose-bound 13-mer variant DEAWHLGELVWCT-(βA)(βA) (DEAWHLGELVWCT[βAla][βAla]; not fully specified; printed as DEAWHLGELVWCT-(βA)(βA); also: cellulose-bound)			0	0	0
07A: cellulose-bound 13-mer variant DCAWHLAELVWCT-(βA)(βA) (DCAWHLAELVWCT-{βAla-βAla-cellulose}; disulfide 2-12 (inferred); not fully specified (N-terminus); printed as DCAWHLAELVWCT-(βA)(βA); reading uncertain)			0	0	0
12I: cellulose-bound 13-mer variant DCAWHLGELVWIT-(βA)(βA) (DCAWHLGELVWIT-{βAla-βAla-cellulose}; not fully specified; printed as DCAWHLGELVWIT-(βA)(βA); reading uncertain)			0	0	0
09Y: cellulose-bound 13-mer variant DCAWHLGEYVWCT-(βA)(βA) (DCAWHLGEYVWCT-{βAla-βAla-cellulose}; disulfide 2-12 (inferred); reading uncertain; also: printed as DCAWHLGEYVWCT-(βA)(βA))			0	0	0
08T: cellulose-bound 13-mer variant DCAWHLGTLVWCT-(βA)(βA) (DCAWHLGTLVWCT-{βAla-βAla-cellulose}; disulfide 2-12 (inferred); reading uncertain; also: printed as DCAWHLGTLVWCT-(βA)(βA))			0	0	0
11H: cellulose-bound 13-mer variant DCAWHLGELVHCT-(βA)(βA)			+	0	0
05R: cellulose-bound 13-mer variant DCAWRLGELVWCT-(βA)(βA) (disulfide 2-12 (inferred); not fully specified (N-terminus, C-terminus); printed as DCAWRLGELVWCT-(βA)(βA); also: cellulose-bound)			0	0	0

The remaining lines, values ahead:

Rel. capacity: mg of bound protein/mg of peptide matrix loading [1] [mg/mg]	Volume capacity: mg of bound protein/ml of peptide matrix [1] [mg/mL]	Result for incubation with human IgG-Fc (immunoglobulin binding detection) [2]	Result for incubation with serum albumin (immunoglobulin binding detection) [3]	Result for incubation with human plasma (immunoglobulin binding detection) [4]	Substance
		0	0	0	04C: cellulose-bound 13-mer variant DCACHLGELVWCT-(βA)(βA) (DCACHLGELVWCT-{βAla-βAla-cellulose}; disulfide (positions not given here); not fully specified (bridges); printed as DCACHLGELVWCT-(βA)(βA); reading uncertain)
		0	0	0	05K: cellulose-bound 13-mer variant DCAWKLGELVWCT-(βA)(βA) (disulfide 2-12 (inferred); not fully specified (N-terminus, C-terminus); printed as DCAWKLGELVWCT-(βA)(βA); also: cellulose-bound)
		0	0	0	10E: cellulose-bound 13-mer variant DCAWHLGELEWCT-(βA)(βA) (DCAWHLGELEWCT-{βAla-βAla-cellulose}; disulfide 2-12 (inferred); reading uncertain; also: printed as DCAWHLGELEWCT-(βA)(βA))
		0	0	0	09G: cellulose-bound 13-mer variant DCAWHLGEGVWCT-(βA)(βA) (DCAWHLGEGVWCT-{βAla-βAla-cellulose}; disulfide 2-12 (inferred); reading uncertain; also: printed as DCAWHLGEGVWCT-(βA)(βA))
		+	0	+	08N: cellulose-bound 13-mer variant DCAWHLGNLVWCT-(βA)(βA) (DCAWHLGNLVWCT-{βAla-βAla-cellulose}; disulfide 2-12 (inferred); not fully specified (N-terminus); printed as DCAWHLGNLVWCT-(βA)(βA); reading uncertain)
